In patent US20220304945A1, “METHODS OF TREATING METABOLIC SYNDROME RELATED CONDITIONS USING RETINOIC ACID RECEPTOR AGONISTS” (Cornell University, priority 2014, published 2022):
Entries after “also recorded” stand apart in the source; their conditions may differ.

Experiments:
Type in all cases: in vivo, mouse
[1] = test system: PPARα, CPT1-α, CPT2, ACAT1, FASN, SREBP1, ACC1, HSL, PLIN, ADIPOQ mRNA; assay: Q-PCR of lipid metabolism genes in liver, pancreas and adipose tissue; details: Wt and Ob/Ob mice, pancreas, adipose
Method: RNA Isolation and cDNA Synthesis-Total RNA was isolated from whole pancreas and small intestine homogenates using RNeasy mini kits (Qiagen, Valencia, Calif.) and quantified using a Nano Drop 2000 spectrophotometer (Thermo Scientific, Wilmington, Del.). Total RNA (2 μg) was used to synthesize cDNA with random primers using a qScript cDNA synthesis kit (Quanta Biosciences, Gaithersburg, Md.).
Quantitative RT-PCR (Q-PCR)-Q-PCR was performed using SYBR Green PCR master mix on a Bio-Rad MyiQ2 Real Time PCR iCycler (Bio-Rad, Inc. Hercules, Calif.). Gene specific primers (Table 5) were used to amplify mRNA target genes, which were normalized to Hprt internal control genes. cDNA from 3-5 mice per experimental group was analyzed for relative mRNA fold changes, calculated using the Pfaffl method (Pfaffl M W, A new mathematical model for relative quantification in real-time RT-PCR, Nucleic Acids Res. 2001 May 1; 29(9):e45). Relative gene expression values are reported as mean±standard error of the mean (S.E.M) and P-values calculated using one-way analysis of variance followed by Bonferroni multiple comparison test post-hoc analysis.

[2] = test system: Ob/Ob and Db/Db mice; assay: Metabolic studies (body weight, GTT, insulin secretion, ITT) in Ob/Ob and Db/Db mice, 8 weeks
[3] = test system: RARβ2 mRNA; assay: Semi-quantitative PCR of pancreas, LRAT −/− vitamin A deficient mice; details: treated 8 weeks
Method: FIG. 10. Gene expression of RARβ2 in pancreatic tissue from LRAT −/− vitamin A sufficient mice (VAS, normal control diet), LRAT −/− vitamin A deficient (VAD) mice, and LRAT −/− vitamin A deficient (VAD) mice treated with AC261066 for 8 weeks.
Semi-Quantitate PCR. Total RNA was extracted from mouse tissues using TRIzol reagent (Life technologies) and (1 μg) was used to synthesize cDNA. cDNA synthesis was performed at 42° C. for 1 h in a final volume of 20 μl using qScript (Quanta, MD). Semi-quantitative PCR were performed Taq DNA polymerase (Invitrogen, CA). Three step PCR was run as follows: 94° C. for 30 s, 58-64° C. for 45 s for primer annealing and 72° C. for 1 min for primer extension. The number of cycles for each primer pair for amplification in the linear range was determined experimentally. PCR products were resolved on 2% agarose gels and visualized by staining with ehtidium bromide. Primers for gene expression used were as follows: […]

[4] = test system: 4-HNE, oxidative stress in pancreatic islets; assay: 4-hydroxynonenal (4-HNE) staining of pancreas, HF-fed mice; details: HF diet mice, AC261066 in drinking water; vs HF-vehicle
From the text: (§1) Mice, diet, and drug treatment. WT male C57/BL6 male mice were maintained on either a standard laboratory chow-fed diet (CFD) with 13% kcal fat, (diet #5053, Lab Diet, Inc, St. Louis, Mo.) or a high fat, western style diet (HFD) with 60% kcals from fat, (diet #58126, Lab Diet, Inc., St. Louis, Mo.) for 4 months. One month after the start of the high fat diet treatment, the high fat diet group was further split into 2 groups for 3 months: i) high fat diet and the drinking water containing 1% DMSO; ii) high fat diet and the drinking water containing 1.5 mg/100 ml AC261066, a specific RARβ agonist. Then mice were sacrificed by cervical dislocation. Blood and various tissue samples were harvested.
(§2) 4-hydroxynonenal (4-HNE) staining. Paraffin-embedded sections (from two to four mice per group) were deparaffinized and rehydrated, and antigen retrieval was performed using an antigen unmasking solution (Vector Laboratories, H-3300). After quenching endogenous peroxidase with 3% H2O2, the tissue sections were blocked with the blocking reagent (from the M.O.M. kit from Vector Laboratories). Then, tissue sections were incubated with a 4-HNE antibody (1:400; mouse monoclonal antibody; Abcam, ab48506) overnight at 4° C. The sections were then incubated with secondary antibodies (1:200, anti-mouse IgG from the M.O.M kit). […]

[5] = test system: 4-HNE, oxidative stress in the liver; assay: 4-HNE staining of liver, HF-fed mice; details: HF diet mice; vs high fat diet group
From the text: as §1, §2

In the case of `CCCCOCCOc1nc(-c2ccc(C(=O)O)c(F)c2)sc1C` [AC261066], the “tissue expression of genes involved in lipogenesis and mitochondrial oxidation of lipids” value [1] is reported as “alters”, the pancreatic insulin secretion ([2]; Ob/Ob mice) is reported as “decreased” and the body weights ([2]; genetically obese and diabetic Ob/Ob and Db/Db mice) is reported as “significant reductions”. For the same compound, the “pancreatic RARβ2 mRNA level” value [3] was “increased”, the “4-HNE level (oxidative stress) in pancreatic islets” value [4] was “reduces oxidative stress; also recorded: markedly lower” and the “4-HNE level (oxidative stress, ROS) in liver” value [5] was “reduces oxidative stress; also recorded: lower”.
